Patent US20070036839A1, “Phosphorylated glucomannane polysaccharides containing 1-6 and 1-2 linkages increase weight gain in poultry” (priority 2005, published 2007)

Test: Weekly hematology (CBC with differential); on Red Blood Cells HCT: test concentration or dose not given here; on White Blood Cells BASO: test concentration or dose not given here; on White Blood Cells EOS: test concentration or dose not given here; on White Blood Cells LYMP + MONO: test concentration or dose not given here; on White Blood Cells NEUT: test concentration or dose not given here; on White Blood Cells WBC: test concentration or dose not given here
Format: in vivo, Male Ross x Ross broiler chickens

Substance: Candida utilis phosphoglucomannan [CUP]
- Others Het/Poly (Day 3, dose group 1): 14.67%
- Red Blood Cells HCT (Day 3, dose group 1): 30.60%
- White Blood Cells BASO (Day 3, dose group 1): 193.33 X/uL
- White Blood Cells EOS (Day 3, dose group 1): 0.00 X/uL
- White Blood Cells LYMP + MONO (Day 3, dose group 1): 2956.67 X/uL
- White Blood Cells NEUT (Day 3, dose group 1): 516.67 X/uL
- White Blood Cells WBC (Day 3, dose group 1): 3670 µL⁻¹
- Others Het/Poly (Day 3, dose group 3): 20.33%
- Red Blood Cells HCT (Day 3, dose group 3): 28.67%
- White Blood Cells BASO (Day 3, dose group 3): 78.33 X/uL
- White Blood Cells EOS (Day 3, dose group 3): 6.67 X/uL
- White Blood Cells LYMP + MONO (Day 3, dose group 3): 2595.00 X/uL
- White Blood Cells NEUT (Day 3, dose group 3): 820.00 X/uL
- White Blood Cells WBC (Day 3, dose group 3): 3500 µL⁻¹
- Others Het/Poly (Day 3, dose group 20): 17.67%
- Red Blood Cells HCT (Day 3, dose group 20): 27.00%
- White Blood Cells BASO (Day 3, dose group 20): 48.33 X/uL
- White Blood Cells EOS (Day 3, dose group 20): 0.00 X/uL
- White Blood Cells LYMP + MONO (Day 3, dose group 20): 2828.33 X/uL
- White Blood Cells NEUT (Day 3, dose group 20): 623.33 X/uL
- White Blood Cells WBC (Day 3, dose group 20): 3500 µL⁻¹
- Others Het/Poly (Day 7, dose group 1): 21.00%
- White Blood Cells BASO (Day 7, dose group 1): 85.00 X/uL
- White Blood Cells EOS (Day 7, dose group 1): 0.00 X/uL
- White Blood Cells LYMP + MONO (Day 7, dose group 1): 4665.00 X/uL
- White Blood Cells NEUT (Day 7, dose group 1): 1250.00 X/uL
- White Blood Cells WBC (Day 7, dose group 1): 6000 µL⁻¹
- Others Het/Poly (Day 7, dose group 3): 21.33%
- White Blood Cells BASO (Day 7, dose group 3): 193.33 X/uL
- White Blood Cells EOS (Day 7, dose group 3): 0.00 X/uL
- White Blood Cells LYMP + MONO (Day 7, dose group 3): 4253.33 X/uL
- White Blood Cells NEUT (Day 7, dose group 3): 1220.00 X/uL
- White Blood Cells WBC (Day 7, dose group 3): 5670 µL⁻¹
- Others Het/Poly (Day 7, dose group 20): 25.67%
- White Blood Cells BASO (Day 7, dose group 20): 113.33 X/uL
- White Blood Cells EOS (Day 7, dose group 20): 0.00 X/uL
- White Blood Cells LYMP + MONO (Day 7, dose group 20): 4050.00 X/uL
- White Blood Cells NEUT (Day 7, dose group 20): 1503.33 X/uL
- White Blood Cells WBC (Day 7, dose group 20): 5670 µL⁻¹
- Others Het/Poly (Day 15, dose group 1): 41.33%
- Red Blood Cells HCT (Day 15, dose group 1): 27.33%
- White Blood Cells BASO (Day 15, dose group 1): 146.67 X/uL
- White Blood Cells EOS (Day 15, dose group 1): 0.00 X/uL
- White Blood Cells LYMP + MONO (Day 15, dose group 1): 4346.67 X/uL
- White Blood Cells NEUT (Day 15, dose group 1): 3506.67 X/uL
- White Blood Cells WBC (Day 15, dose group 1): 8000 µL⁻¹
- Others Het/Poly (Day 15, dose group 3): 39.00%
- Red Blood Cells HCT (Day 15, dose group 3): 31.00%
- White Blood Cells BASO (Day 15, dose group 3): 153.33 X/uL
- White Blood Cells EOS (Day 15, dose group 3): 0.00 X/uL
- White Blood Cells LYMP + MONO (Day 15, dose group 3): 4796.67 X/uL
- White Blood Cells NEUT (Day 15, dose group 3): 3383.33 X/uL
- White Blood Cells WBC (Day 15, dose group 3): 8330 µL⁻¹
- Others Het/Poly (Day 15, dose group 20): 45.33%
- Red Blood Cells HCT (Day 15, dose group 20): 22.00%
- White Blood Cells BASO (Day 15, dose group 20): 113.33 X/uL
- White Blood Cells EOS (Day 15, dose group 20): 0.00 X/uL
- White Blood Cells LYMP + MONO (Day 15, dose group 20): 3710.00 X/uL
- White Blood Cells NEUT (Day 15, dose group 20): 2843.33 X/uL
- White Blood Cells WBC (Day 15, dose group 20): 6670 µL⁻¹
- Others Het/Poly (Day 21, dose group 1): 29.00%
- Red Blood Cells HCT (Day 21, dose group 1): 30.00%
- White Blood Cells BASO (Day 21, dose group 1): 240.00 X/uL
- White Blood Cells EOS (Day 21, dose group 1): 0.00 X/uL
- White Blood Cells LYMP + MONO (Day 21, dose group 1): 5440.00 X/uL
- White Blood Cells NEUT (Day 21, dose group 1): 2320.00 X/uL
- White Blood Cells WBC (Day 21, dose group 1): 8000 µL⁻¹
- Others Het/Poly (Day 21, dose group 3): 26.00%
- Red Blood Cells HCT (Day 21, dose group 3): 30.33%
- White Blood Cells BASO (Day 21, dose group 3): 250.00 X/uL
- White Blood Cells EOS (Day 21, dose group 3): 0.00 X/uL
- White Blood Cells LYMP + MONO (Day 21, dose group 3): 6640.00 X/uL
- White Blood Cells NEUT (Day 21, dose group 3): 2443.33 X/uL
- White Blood Cells WBC (Day 21, dose group 3): 9330 µL⁻¹
- Others Het/Poly (Day 21, dose group 20): 32.67%
- Red Blood Cells HCT (Day 21, dose group 20): 31.00%
- White Blood Cells BASO (Day 21, dose group 20): 306.67 X/uL
- White Blood Cells EOS (Day 21, dose group 20): 0.00 X/uL
- White Blood Cells LYMP + MONO (Day 21, dose group 20): 6746.67 X/uL
- White Blood Cells NEUT (Day 21, dose group 20): 3280.00 X/uL
- White Blood Cells WBC (Day 21, dose group 20): 10330 µL⁻¹
- Others Het/Poly (Day 28, dose group 1): 42.00%
- Red Blood Cells HCT (Day 28, dose group 1): 29.33%
- White Blood Cells BASO (Day 28, dose group 1): 446.67 X/uL
- White Blood Cells EOS (Day 28, dose group 1): 0.00 X/uL
- White Blood Cells LYMP + MONO (Day 28, dose group 1): 4546.67 X/uL
- White Blood Cells NEUT (Day 28, dose group 1): 3673.33 X/uL
- White Blood Cells WBC (Day 28, dose group 1): 8670 µL⁻¹
- Others Het/Poly (Day 28, dose group 3): 44.67%
- Red Blood Cells HCT (Day 28, dose group 3): 30.00%
- White Blood Cells BASO (Day 28, dose group 3): 560.00 X/uL
- White Blood Cells EOS (Day 28, dose group 3): 0.00 X/uL
- White Blood Cells LYMP + MONO (Day 28, dose group 3): 3323.33 X/uL
- White Blood Cells NEUT (Day 28, dose group 3): 3450.00 X/uL
- White Blood Cells WBC (Day 28, dose group 3): 7330 µL⁻¹
- Others Het/Poly (Day 28, dose group 20): 45.00%
- Red Blood Cells HCT (Day 28, dose group 20): 33.67%
- White Blood Cells BASO (Day 28, dose group 20): 410.00 X/uL
- White Blood Cells EOS (Day 28, dose group 20): 0.00 X/uL
- White Blood Cells LYMP + MONO (Day 28, dose group 20): 4413.33 X/uL
- White Blood Cells NEUT (Day 28, dose group 20): 3843.33 X/uL
- White Blood Cells WBC (Day 28, dose group 20): 8670 µL⁻¹
- Others Het/Poly (Day 35, dose group 1): 31.33%
- Red Blood Cells HCT (Day 35, dose group 1): 29.67%
- White Blood Cells BASO (Day 35, dose group 1): 253.33 X/uL
- White Blood Cells EOS (Day 35, dose group 1): 0.00 X/uL
- White Blood Cells LYMP + MONO (Day 35, dose group 1): 5046.67 X/uL
- White Blood Cells NEUT (Day 35, dose group 1): 2700.00 X/uL
- White Blood Cells WBC (Day 35, dose group 1): 8000 µL⁻¹
- Others Het/Poly (Day 35, dose group 3): 39.67%
- Red Blood Cells HCT (Day 35, dose group 3): 31.67%
- White Blood Cells BASO (Day 35, dose group 3): 310.00 X/uL
- White Blood Cells EOS (Day 35, dose group 3): 0.00 X/uL
- White Blood Cells LYMP + MONO (Day 35, dose group 3): 4876.67 X/uL
- White Blood Cells NEUT (Day 35, dose group 3): 3146.67 X/uL
- White Blood Cells WBC (Day 35, dose group 3): 8330 µL⁻¹
- Others Het/Poly (Day 35, dose group 20): 31.00%
- Red Blood Cells HCT (Day 35, dose group 20): 28.67%
- White Blood Cells BASO (Day 35, dose group 20): 350.00 X/uL
- White Blood Cells EOS (Day 35, dose group 20): 0.00 X/uL
- White Blood Cells LYMP + MONO (Day 35, dose group 20): 5230.00 X/uL
- White Blood Cells NEUT (Day 35, dose group 20): 2420.00 X/uL
- White Blood Cells WBC (Day 35, dose group 20): 8000 µL⁻¹
- Others Het/Poly (Day 42, dose group 1): 50.00%
- Red Blood Cells HCT (Day 42, dose group 1): 27.67%
- White Blood Cells BASO (Day 42, dose group 1): 353.33 X/uL
- White Blood Cells EOS (Day 42, dose group 1): 106.67 X/uL
- White Blood Cells LYMP + MONO (Day 42, dose group 1): 3913.33 X/uL
- White Blood Cells NEUT (Day 42, dose group 1): 4626.67 X/uL
- White Blood Cells WBC (Day 42, dose group 1): 9000 µL⁻¹
- Others Het/Poly (Day 42, dose group 3): 34.33%
- Red Blood Cells HCT (Day 42, dose group 3): 27.50%
- White Blood Cells BASO (Day 42, dose group 3): 710.00 X/uL
- White Blood Cells EOS (Day 42, dose group 3): 0.00 X/uL
- White Blood Cells LYMP + MONO (Day 42, dose group 3): 4816.67 X/uL
- White Blood Cells NEUT (Day 42, dose group 3): 2806.67 X/uL
- White Blood Cells WBC (Day 42, dose group 3): 8330 µL⁻¹
- Others Het/Poly (Day 42, dose group 20): 43.00%
- Red Blood Cells HCT (Day 42, dose group 20): 34.67%
- White Blood Cells BASO (Day 42, dose group 20): 360.00 X/uL
- White Blood Cells EOS (Day 42, dose group 20): 0.00 X/uL
- White Blood Cells LYMP + MONO (Day 42, dose group 20): 4960.00 X/uL
- White Blood Cells NEUT (Day 42, dose group 20): 4013.33 X/uL
- White Blood Cells WBC (Day 42, dose group 20): 9330 µL⁻¹
- Others Het/Poly (Day 49, dose group 1): 32.00%
- Red Blood Cells HCT (Day 49, dose group 1): 30.00%
- White Blood Cells BASO (Day 49, dose group 1): 370.00 X/uL
- White Blood Cells EOS (Day 49, dose group 1): 0.00 X/uL
- White Blood Cells LYMP + MONO (Day 49, dose group 1): 5266.67 X/uL
- White Blood Cells NEUT (Day 49, dose group 1): 2696.67 X/uL
- White Blood Cells WBC (Day 49, dose group 1): 8330 µL⁻¹
- Others Het/Poly (Day 49, dose group 3): 31.33%
- Red Blood Cells HCT (Day 49, dose group 3): 29.67%
- White Blood Cells BASO (Day 49, dose group 3): 263.33 X/uL
- White Blood Cells EOS (Day 49, dose group 3): 0.00 X/uL
- White Blood Cells LYMP + MONO (Day 49, dose group 3): 6606.67 X/uL
- White Blood Cells NEUT (Day 49, dose group 3): 3130.00 X/uL
- White Blood Cells WBC (Day 49, dose group 3): 10000 µL⁻¹
- Others Het/Poly (Day 49, dose group 20): 30.33%
- Red Blood Cells HCT (Day 49, dose group 20): 31.33%
- White Blood Cells BASO (Day 49, dose group 20): 236.67 X/uL
- White Blood Cells EOS (Day 49, dose group 20): 0.00 X/uL
- White Blood Cells LYMP + MONO (Day 49, dose group 20): 5846.67 X/uL
- White Blood Cells NEUT (Day 49, dose group 20): 2583.33 X/uL
- White Blood Cells WBC (Day 49, dose group 20): 8670 µL⁻¹
